# In US20090124672A1 (priority 2007, published 2009):
# pIC50: −log10 of the molar value. Values joined by “and” are separate entries in the source; they are usually repeats but may differ in a detail not shown here. Identical values can stand only once.
# Tests used:
# [1] = tested on: congenitally anxious Fawn-Hooded (FH) rats; test: Social interaction test, Fawn Hooded (FH) rat model of anxiety; assay type: in vivo; conditions: 15 mg/kg i.p., 30 min after injection
# Source text: (§1) Experienced observers blinded to the experimental conditions carried out the social interaction test in a square open field (60 cm by 60 cm, with 16 15×15 cm squares marked out on the floor). Pairs of rats receiving the same treatment were placed in the arena and the onset of social interactions recorded. This procedure has been validated by previous studies (Overstreet et al. (2002); Overstreet et al. (2003)). Rats were unfamiliar with the open field and lighting conditions were low in order to generate an intermediate level of anxiety-related behavior. Rat pairs matched according to weight and treatment were placed simultaneously in the open field. During the 5-min session, line crosses (by two forepaws) and time spent in social interaction (grooming, sniffing, following) were scored individually for each rat (Kampov-Polevoy et al., 2000; Overstreet et al., 2002, 2003).
# Rats [2] = test: Example 32 social interaction, line crosses and center entries; assay type: in vivo, rat; set-up: Social Interaction, Mean / Social Interaction, individual rat: unit not given here; conditions: 15 mg/kg
# Source text: (§2) One noninjected rat was included in the control group for water intake.
# [3] = tested on: alcohol-withdrawn Sprague-Dawley (SD) rats; test: Social interaction test, repeated alcohol withdrawal-induced anxiety; assay type: in vivo, rat
# Source text: as §1
# Ethanol Exposure Studies: Individually housed Sprague-Dawley (SD) rats were given a complete nutritious liquid diet (Knapp et al., 2004; Overstreet et al., 2002) after 5 days to adapt to local conditions. Three days later, most of rats received a 4.5% ethanol liquid diet and others remained on the control liquid diet without ethanol. Rats consumed ethanol for 15 days in three cycles of 5 days each separated by a 2-day withdrawal period between cycles. This design enabled us to test two treatment regimens with Compound A. Acute effects of Compound A (3.75 and 15 mg/kg) were determined 4.5 hr after the 3rd ethanol cycle to allow alcohol washout. The social interaction test was carried out 30 min later.
# [4] = tested on: SD rats subjected to restraint stress; test: Social interaction test, restraint-induced stress; assay type: in vivo, rat; conditions: 15 mg/kg pretreatment
# Source text: as §1
# Restraint-Induced Stress Study: SD rats were injected with either CMC vehicle or 15 mg/kg Compound A in vehicle and subjected to restraint stress in decapicones for one hour. After a 30-min recovery period, the rats were exposed to the open field arena for […] and social interaction and line crosses recorded.
# [5] = tested on: Sprague-Dawley rats treated with mCPP; test: Social interaction test, mCPP-induced anxiety; assay type: in vivo, rat
# Source text: as §1
# (§3) Fifteen min later the rats received a second injection of 0.5 mg/kg DMCM (methyl 6,7-demethoxy-4-ethyl-β-carboline-3-carboxylate) or vehicle (acidified saline). The rats were placed in the open field arena 15 min after the second injection for recording social interaction and locomotor activity for 5-min. Approximately one week later the rats were treated with Compound A (3.75, 7.5 or 15 mg/kg). The 5-HT2C agonist mCPP (m-chlorophenylpiperazine; 0.5 mg/kg) or vehicle (saline) was given 15 min later. After another 15 min period, the social interaction and locomotor activity for five min were recorded.
# [6] = tested on: Sprague-Dawley rats treated with DMCM; test: Social interaction test, DMCM-induced anxiety; assay type: in vivo, rat
# Source text: as §1, §3
# Rats [7] = test: Example 32 alcohol, food and water intake; assay type: in vivo, rat; conditions: 15 mg/kg
# Source text: as §2
# hMAO-A = molecular target: T1, hMAO-A (Homo sapiens, UniProt P21397); test: MAO-A inhibition assay (Amplex Red, horseradish peroxidase-coupled); assay type: biochemical
# T1 construct: purchased Sigma M7316
# T1 sequence (P21397 1-527): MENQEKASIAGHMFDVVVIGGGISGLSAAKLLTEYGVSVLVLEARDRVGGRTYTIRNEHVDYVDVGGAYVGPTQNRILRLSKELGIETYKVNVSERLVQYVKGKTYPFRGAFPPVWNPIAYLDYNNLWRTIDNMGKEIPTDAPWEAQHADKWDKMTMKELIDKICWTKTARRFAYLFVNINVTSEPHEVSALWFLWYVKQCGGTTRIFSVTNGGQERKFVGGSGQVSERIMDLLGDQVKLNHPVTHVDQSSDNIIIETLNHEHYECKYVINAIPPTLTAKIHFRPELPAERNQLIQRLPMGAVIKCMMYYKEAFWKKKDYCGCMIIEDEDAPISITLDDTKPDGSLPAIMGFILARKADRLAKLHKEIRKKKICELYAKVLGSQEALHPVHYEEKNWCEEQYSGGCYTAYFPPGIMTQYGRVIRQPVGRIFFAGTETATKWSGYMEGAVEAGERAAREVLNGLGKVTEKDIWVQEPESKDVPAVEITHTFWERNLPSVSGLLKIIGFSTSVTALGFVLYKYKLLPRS
# Method: (§4) MAO-A (Sigma M7316) and MAO-B (Sigma M7441) inhibition assays were conducted in 96-well micro-plates according to the method described by Zhou et al. [Analytical Biochemistry 253, 169-174, 1997]. Both assays were performed in potassium phosphate buffer (0.1 M, pH 7.5) containing 0.5 mM tyramine (Sigma T2879), 0.12 mM N-acetyl-3,7-dihydrophenoxazine (Amplex Red, Invitrogen A12222), 1.2 unit/ml horseradish peroxidase (Sigma P2088), 0.6 unit/ml MAO-A or 2.5 unit/ml MAO-B, and various concentrations of test compounds (0.1 nM to 10 uM). Reactions were initiated by the addition of a pre-mixed solution of tyramine, horseradish peroxidase and Amplex Red, and were allowed to proceed at 37° C. for 30 min. Enzyme activities were determined by measuring absorbance at 570 nm (SpectralMax Plate reader), absorbance of oxidized Amplex Red generated by this horseradish peroxidase-coupled reaction. Nonspecifically formed products were determined in the presence of 2 and 10 µM clorgyline and deprenyl for MAO-A and MAO-B, respectively. IC50 values were determined by fitting concentration-inhibition data to sigmoidal dose-response curves with two-floating parameters: IC50 and Hill coefficient.
# hMAO-B = molecular target: T2, hMAO-B (Homo sapiens, UniProt P27338); test: MAO-B inhibition assay (Amplex Red, horseradish peroxidase-coupled); assay type: biochemical; conditions: at 10 μM; for inhibition at 10 µM: read-out: hMAO-B inhibition (IC50 hMAO-B)
# T2 construct: purchased Sigma M7441
# T2 sequence (P27338 1-520): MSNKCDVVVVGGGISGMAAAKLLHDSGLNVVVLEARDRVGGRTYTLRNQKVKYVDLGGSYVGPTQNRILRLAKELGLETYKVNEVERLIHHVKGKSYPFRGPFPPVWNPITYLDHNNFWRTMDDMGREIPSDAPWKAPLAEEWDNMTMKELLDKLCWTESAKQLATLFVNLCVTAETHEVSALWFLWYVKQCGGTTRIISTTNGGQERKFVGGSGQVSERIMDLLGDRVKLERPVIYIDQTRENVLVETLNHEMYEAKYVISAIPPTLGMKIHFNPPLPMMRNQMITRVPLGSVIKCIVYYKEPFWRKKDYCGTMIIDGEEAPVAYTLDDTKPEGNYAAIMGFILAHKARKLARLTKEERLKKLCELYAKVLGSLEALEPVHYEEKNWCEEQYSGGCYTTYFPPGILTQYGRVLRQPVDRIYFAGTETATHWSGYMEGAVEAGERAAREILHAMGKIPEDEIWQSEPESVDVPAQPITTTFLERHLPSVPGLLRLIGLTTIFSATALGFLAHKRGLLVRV
# Method: as §4
# [8] = molecular target: T3, hALDH2 (recombinant human mitochondria ALDH) (Homo sapiens, UniProt P05091); test: ALDH2 inhibition assay (NADH formation, formaldehyde substrate); assay type: biochemical
# T3 sequence (P05091 18-517): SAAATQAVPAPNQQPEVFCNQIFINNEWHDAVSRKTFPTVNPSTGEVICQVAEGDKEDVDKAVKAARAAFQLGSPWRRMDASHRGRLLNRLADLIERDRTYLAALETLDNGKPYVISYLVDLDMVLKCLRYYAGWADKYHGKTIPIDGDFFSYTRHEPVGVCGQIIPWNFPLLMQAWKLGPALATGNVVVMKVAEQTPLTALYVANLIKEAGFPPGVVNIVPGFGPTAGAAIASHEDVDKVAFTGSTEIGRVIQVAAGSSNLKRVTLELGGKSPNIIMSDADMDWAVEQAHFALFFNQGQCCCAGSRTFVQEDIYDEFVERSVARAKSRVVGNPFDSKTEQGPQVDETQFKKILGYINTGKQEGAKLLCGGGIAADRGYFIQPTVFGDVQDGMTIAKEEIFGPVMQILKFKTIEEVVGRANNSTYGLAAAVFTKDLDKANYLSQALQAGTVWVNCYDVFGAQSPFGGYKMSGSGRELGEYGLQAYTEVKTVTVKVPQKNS
# Outline: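 1 nM enzyme in 50 mM sodium phosphate pH 7.4 with 1.2 mM NAD+ and compound at 0.03–1000 nM; reaction started with 0.15 mM formaldehyde at 25 °C. NADH formation followed by fluorescence (ex 340/em 460 nm). IC50 from sigmoidal fits with floating Hill slope; apparent Ki from Morrison equation if tight binding.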
# [9] = 30 min before test, listed as Comp. A
# [10] = 3.75, 7.5 or 15 mg/kg i.p. 15 min before 0.5 mg/kg DMCM
structure (smiles),measurement,setting,value
"CS(=O)(=O)Nc1ccc(-c2coc3cc(OCc4cccc(C(=O)O)c4)ccc3c2=O)cc1 [Compound A, 3-[(3-{4-[(methylsulfonyl)amino]phenyl}-4-oxochromen-7-yloxy)methyl]benzoic acid]",locomotor line crossing,[1],did not affect locomotor line crossing
same,increase in social interaction,[1]; vs vehicle,2 fold
same,"Center Entries, Mean","Rats [2]; 30 min before test, n=6",19.3
same,"Line Crosses, Mean","Rats [2]; 30 min before test, n=6",109
same,"Center Entries, individual rat",Rats [2]; [9],28 and 25 and 18 and 13 and 26 and 6
same,"Line Crosses, individual rat",Rats [2]; [9],135 and 125 and 84 and 113 and 104 and 90
same,"Social Interaction, Mean","Rats [2]; 30 min before the social interaction, n=6",13.3
same,"Social Interaction, individual rat","Rats [2]; 30 min before the social interaction, listed as Comp. A",13 and 16 and 14 (2×) and 11 and 12
same,"activity, in words",Rats [2]; vs vehicle,not activity
same,"social interaction (anxiolytic effect), in words",Rats [2]; vs vehicle,increased social interaction
same,"social interaction behavior, prophylactic treatment","[3]; 3.75-15 mg/kg during 1st and 2nd withdrawals, none after 3rd cycle, tested 5 days after last dose",increased social interaction behavior prophylactically
same,locomotor activity,"[3]; acute treatment after alcohol withdrawal, SD rats",No significant differences
same,time of social interaction after alcohol withdrawal,"[3]; acute, 3.75 and 15 mg/kg injected 30 min before testing, SD rats",increased the time of social interaction
same,social interaction behavior after alcohol withdrawal,"[3]; acute, higher doses, SD rats",completely normalizing the behavior
same,"locomotor activity (line crosses), prophylactic treatment",[3]; compared to vehicle treated rats withdrawn from the alcohol liquid diet,barely significant effect
same,locomotor activity after restraint stress,[4],no significant
same,social interaction after restraint stress,"[4]; restraint 60 min, 30-min recovery",prevented stress-induced anxiety-like behavior
same,mCPP-induced anxiogenesis (social interaction),"[5]; 3.75, 7.5 or 15 mg/kg 15 min before 0.5 mg/kg mCPP",did not prevent mCPP-induced anxiogenesis
same,anxiogenic effects of DMCM (reduced social interaction),[6]; [10],prevented by Compound A in a dose-dependent manner
same,reduced locomotor activity caused by DMCM,[6]; [10],"not affected by Compound A, except at 7.5 mg/kg"
same,"food intake, in words",Rats [7],did not affect
same,"water intake, in words",Rats [7],did not affect
same,"2 hr Alcohol Intake, Mean","Rats [7]; 2 hr, n=6",0.2
same,"2 hr Alcohol Intake, individual rat","Rats [7]; 2 hr, listed as Comp. A",0 (2×) and 0.38 (3×) and 0.19
same,"4 hr Alcohol Intake, Mean","Rats [7]; 4 hr, n=6",0.7
same,"4 hr Alcohol Intake, individual rat","Rats [7]; 4 hr, listed as Comp. A",0.88 and 0.4 and 0.76 and 0.95 and 0.38 and 0.57
same,"6 hr Alcohol Intake, Mean","Rats [7]; 6 hr, n=6",1.3
same,"6 hr Alcohol Intake, individual rat","Rats [7]; 6 hr, listed as Comp. A",1.72 and 1.2 and 1.23 and 1.71 and 0.95 and 1
same,"24 hr Alcohol Intake, Mean","Rats [7]; 24 hr, n=6",4.1
same,"24 hr Alcohol Intake, individual rat","Rats [7]; 24 hr, listed as Comp. A",3.2 and 4 and 4.94 and 5.32 and 3.23 and 3.6
same,"alcohol intake, in words",Rats [7]; from 2-6 hr,reduced alcohol intake
same,"Food Intake, Mean",Rats [7]; n=6,19.7
same,"Food Intake, individual rat",Rats [7]; listed as Comp. A,19 (2×) and 18 and 21 (2×) and 20
"N#CCOc1ccc2c(=O)c(-c3ccc(O)cc3)coc2c1 [PT-88, 2-[3-(4-hydroxyphenyl)-4-oxochromen-7-yloxy]ethanenitrile]",pIC50,hMAO-A,5.21
same,inhibition at 10 µM,hMAO-B,35%
same,pIC50,[8],7.64
"CCc1c(C(=O)OC)ncc2[nH]c3cc(OC)c(OC)cc3c12 [DMCM, methyl 6,7-demethoxy-4-ethyl-β-carboline-3-carboxylate, reference compound]",social interaction (effect of anxiogenic agent),"[6]; 0.5 mg/kg DMCM, 15 min before test",substantially reduced social interaction
same,locomotor activity (effect of anxiogenic agent),"[6]; 0.5 mg/kg DMCM, compared to controls",reduced locomotor activity
"Clc1cccc(N2CCNCC2)c1 [mCPP, m-chlorophenylpiperazine]",social interaction (effect of anxiogenic agent),"[5]; 0.5 mg/kg mCPP, 15 min before test",low social interaction score
same,locomotor activity (effect of anxiogenic agent),"[5]; 0.5 mg/kg mCPP, compared to controls",reduced locomotor activity
same,locomotor activity compared to vehicle-treated rats receiving mCPP,[5]; rats receiving mCPP 0.5 mg/kg,no effect
"O=c1c(-c2ccc(O)cc2)coc2cc(OCCCc3ccccc3)ccc12 [PT-57, 3-(4-hydroxyphenyl)-7-(3-phenylpropoxy)chromen-4-one]",hMAO-B inhibition (IC50 hMAO-B),hMAO-B,27%
same,inhibition at 10 µM,hMAO-B,27%
same,pIC50,[8],7.70
